In paper PMC4807281 (The Journal of Biological Chemistry, 2016):

What was measured:
DnaK [1] = molecular target: T1, DnaK (Escherichia coli, UniProt P0A6Y8); assay: Peptide binding assay (fluorescence polarization), control/deglutathionylated DnaK; design: species or system E. coli; conditions: ADP state; FP
T1 construct: His6-Smt3 (N, cleaved yes); made in house; host or cells: E. coli BL21(DE3)
Method: FP values are expressed in millipolarization units. All statistical analyses were performed with Origin 8 software.
FIGURE 6.

Hsp72 = test system: Hsp72; design: method as in PMID 15540944; conditions: modification at Cys-267; ref [62]; cited from earlier work
DnaK [2] = molecular target: T1, DnaK; design: species or system E. coli; conditions: 1 mM ADP/ATP/NRLLLTG peptide, 1 h room temperature before DTNB; mean of three
Method: A standard curve was obtained using 0–100 μM free cysteine. […] The number of active cysteine residues can be calculated by dividing the concentration of free thiols in the protein by the concentration of protein.
FIGURE 1. […] The N-terminal NBD and its subdomains IA, IB, IIA, and IIB and the C-terminal SBD are indicated. […] The number of free thiols was calculated from the absorbance at 412 nm using a standard curve.

DnaK [3] = molecular target: T1, DnaK; design: species or system E. coli; conditions: 0.5 mM ATP or ADP premixed 30 min with DnaK T199A; GSH and diamide
Method: To deglutathionylate the protein, 10 mM DTT was added to the reaction mixture. GSH, diamide, and/or DTT was removed by dialysis.
(§1) Cooled protein was mixed with the dye and incubated in the dark at room temperature for at least 30 min. SDS-PAGE was performed to separate protein and surplus dye. Fluorescence of Alexa Fluor 350 dye was observed using excitation at 254 nm with a UV lamp.
(§2) FIGURE 3. […] Unmodified cysteine residues for untreated control, glutathionylated, and deglutathionylated samples were labeled with fluorescent dye.

glutathionylated DnaK = molecular target: T2, glutathionylated DnaK (Escherichia coli, UniProt P0A6Y8); assay: Deglutathionylation of glutathionylated DnaK by Grx3/GSH; design: species or system E. coli; conditions: 10 μM glutathionylated DnaK, 30 min, 37 °C, […] Grx3 with 20 μM GSH
T2 construct: His6-Smt3 (N, cleaved yes); made in house; host or cells: E. coli BL21(DE3)
T2 sequence (P0A6Y8 2-638): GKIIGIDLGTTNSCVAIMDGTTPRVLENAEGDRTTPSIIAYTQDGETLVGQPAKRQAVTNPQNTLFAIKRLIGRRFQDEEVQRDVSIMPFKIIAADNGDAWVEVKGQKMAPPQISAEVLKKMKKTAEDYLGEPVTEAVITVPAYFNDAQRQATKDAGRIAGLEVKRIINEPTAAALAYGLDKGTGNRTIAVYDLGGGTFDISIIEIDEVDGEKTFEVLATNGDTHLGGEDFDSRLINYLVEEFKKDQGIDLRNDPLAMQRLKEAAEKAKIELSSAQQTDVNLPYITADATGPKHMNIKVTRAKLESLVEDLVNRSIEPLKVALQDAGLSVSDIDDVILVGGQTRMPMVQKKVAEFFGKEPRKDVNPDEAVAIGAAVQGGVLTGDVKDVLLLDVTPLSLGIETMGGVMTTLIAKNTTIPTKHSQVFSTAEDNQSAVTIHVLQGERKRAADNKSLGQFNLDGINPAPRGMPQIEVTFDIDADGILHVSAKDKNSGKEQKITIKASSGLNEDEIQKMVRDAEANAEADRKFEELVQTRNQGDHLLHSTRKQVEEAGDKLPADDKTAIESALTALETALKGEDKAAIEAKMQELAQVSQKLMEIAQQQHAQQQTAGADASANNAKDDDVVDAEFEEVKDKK
Method: […] GSH, diamide, and/or DTT was removed by dialysis.
as §1, §2

Ssa1 = test system: Ssa1; design: method as in PMID 8939938, PMID 9753476, PMID 10462452; conditions: absence of nucleotide; ref [56], [60], [61]; cited from earlier work
[4] = test system: heat-induced luciferase aggregation; design: method as in PMID 15109915; conditions: ref [68]; cited from earlier work

T1 sequence (P0A6Y8 2-638): as above

CC(C)C[C@H](NC(=O)[C@H](C)NC(=S)Nc1ccc2c(c1)C(=O)OC21c2ccc(O)cc2Oc2cc(O)ccc21)C(=O)N[C@@H](CC(C)C)C(=O)N[C@@H](CC(C)C)C(=O)N[C@@H](CO)C(=O)N[C@@H](C)C(=O)N1CCC[C@H]1C(=O)N[C@@H](CCCNC(=N)N)C(=O)N[C@@H](CCCNC(=N)N)C(=O)O
effect of ADP binding to DnaK on binding affinity of peptide (DnaK [1]): did not obviously alter the binding affinity of peptide

CCCCCC(O)C=CC=O (stereo not drawn) [4-Hydroxy-2-nonenal]
effect on protein refoldase activity of Hsp72 (Hsp72): inhibits its protein refoldase activity

Nc1ncnc2c1ncn2[C@@H]1O[C@H](COP(=O)(O)OP(=O)(O)O)[C@@H](O)[C@H]1O [ADP]
effect on cysteine reactivity of DnaK (DnaK [2]): inhibited cysteine reactivity of DnaK to different degrees | effect on glutathionylation of DnaK (DnaK [3]): no glutathionylation of DnaK occurred

Nc1ncnc2c1ncn2[C@@H]1O[C@H](COP(=O)(O)OP(=O)(O)OP(=O)(O)O)[C@@H](O)[C@H]1O [ATP]
effect on cysteine reactivity of DnaK (DnaK [2]): inhibited cysteine reactivity of DnaK to different degrees | effect on glutathionylation of DnaK (DnaK [3]): no glutathionylation of DnaK occurred

N[C@@H](CCC(=O)N[C@@H](CS)C(=O)NCC(=O)O)C(=O)O [GSH]
deglutathionylation of DnaK (glutathionylated DnaK): worked synergistically to cause deglutathionylation of DnaK

CCN1C(=O)C=CC1=O [N-ethylmaleimide]
effect of modification on Ssa1 (Ssa1): reduces transmembrane transport as well as the ATPase and luciferase refolding activities of Ssa1

Hsc70: Hsp70 family member whose glutathionylation is cited
effect of glutathionylation of Hsc70 [4]: enhance inhibition of heat-induced luciferase aggregation
